{"source": "patent US20200375943A1", "about": "(priority 2019, published 2020)", "key": {"[1]": {"target": "T1, SVCT2 (Homo sapiens, UniProt Q9UGH3)", "set-up": "endogenous in cells; host or cells: HTR-8/SVneo human trophoblast cell line", "conditions": "cited from earlier work; for inhibitory action for LAA transporter SVCT2: HTR-8/SVneo cells; for uptake of LAA via SVCT2: trophoblast cells"}, "[2]": {"target": "T1, SVCT2", "set-up": "endogenous in cells; host or cells: bone marrow stromal cells (BMSCs)", "conditions": "600 uM, BMSCs; cited from earlier work"}, "[3]": {"test_system": "SVCT2", "conditions": "200 uM, cortical or cerebellar neurons; cited from earlier work"}, "[4]": {"target": "T2, SVCT1(h) (Homo sapiens, UniProt Q9UHI7)", "T2 construct": "expressed in transfected cells", "T2 sequence (Q9UHI7 whole entry)": "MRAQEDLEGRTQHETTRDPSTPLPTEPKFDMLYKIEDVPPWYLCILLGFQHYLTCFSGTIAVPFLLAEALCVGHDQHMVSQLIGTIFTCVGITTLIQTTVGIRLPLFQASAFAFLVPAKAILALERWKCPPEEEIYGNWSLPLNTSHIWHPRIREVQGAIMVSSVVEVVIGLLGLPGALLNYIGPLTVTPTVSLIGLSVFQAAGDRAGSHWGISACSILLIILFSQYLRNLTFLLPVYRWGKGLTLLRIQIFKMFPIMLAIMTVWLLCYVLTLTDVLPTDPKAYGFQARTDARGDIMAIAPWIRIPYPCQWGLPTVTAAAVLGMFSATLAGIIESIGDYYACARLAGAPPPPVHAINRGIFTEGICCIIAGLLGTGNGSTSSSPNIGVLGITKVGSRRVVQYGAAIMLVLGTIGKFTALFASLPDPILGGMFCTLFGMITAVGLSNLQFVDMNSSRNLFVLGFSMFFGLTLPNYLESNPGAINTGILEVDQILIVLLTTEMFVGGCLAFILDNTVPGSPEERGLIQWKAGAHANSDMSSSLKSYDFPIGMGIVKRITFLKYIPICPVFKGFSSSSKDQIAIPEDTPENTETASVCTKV", "conditions": "50 uM, ascorbate 10-400 uM; cited from earlier work"}, "[5]": {"conditions": "humans, oral; cited from earlier work"}, "[6]": {"test_system": "leukemic blast cells", "assay": "Phase I/II clinical trial of LAA depletion alternating with LAA supplementation", "format": "in vivo, human", "text": "No. 12, Blood. 2000 (see Reference 9).\nThat is, in the example, a leukemia patient first received a chemotherapy and subsequently received the LAA supplementation. […] The noted sharp decline is much more precipitous than what can be observed with chemotherapy.\nIn the example, the significant improvement is also noted that there was a total of 8 out of 16 patients in the Phase I/II clinical trial responding (p=0.007)."}, "[7]": {"conditions": "cited from earlier work"}, "[8]": {"test_system": "sarcoma tumors", "conditions": "oral gavage, cited from earlier work"}, "[9]": {"test_system": "human leukemic cells", "conditions": "bone marrows from 259 patients; cited from earlier work"}}, "note": "Like-named read-outs stand apart in the source and are kept apart here.", "data": [{"molecule": "O=C(O)Cc1ccccc1Nc1c(Cl)cccc1Cl", "note": "[diclofenac]", "values": [{"measurement": "inhibitory action for LAA transporter SVCT2", "setting": "[1]", "result": "very strong inhibitory action"}, {"measurement": "uptake of LAA via SVCT2", "setting": "[1]", "result": "inhibit the uptake of LAA"}]}, {"molecule": "Cl.N=c1c[n+](N2CCOCC2)[n-]o1", "note": "[SIN-1, 3-(4-Morpholinyl) sydnonimine hydrochloride]", "values": [{"measurement": "decrease in LAA uptake", "setting": "[2]", "result": "up to 40%"}]}, {"molecule": "O=c1c(-c2ccc(O)cc2)coc2cc(O)cc(O)c12", "note": "[genistein]", "values": [{"measurement": "inhibitory action for LAA transporter SVCT2", "setting": "[1]", "result": "very strong inhibitory action"}]}, {"molecule": "C[C@]12CC[C@@H]3c4ccc(O)cc4CC[C@H]3[C@@H]1CC[C@@H]2O", "note": "[17β-estadiol]", "values": [{"measurement": "inhibitory action for LAA transporter SVCT2", "setting": "[1]", "result": "very strong inhibitory action"}]}, {"molecule": "O=c1c(O)c(-c2ccc(O)c(O)c2)oc2cc(O)cc(O)c12", "note": "[quercetin]", "values": [{"measurement": "decrease of LAA transport SVCT2", "setting": "[3]", "result": 80, "unit": "%"}, {"measurement": "inhibition of LAA transporter SVCT1(h)", "setting": "[4]", "result": "about 80%"}, {"measurement": "inhibitory action for LAA transporter SVCT2", "setting": "[1]", "result": "very strong inhibitory action"}, {"measurement": "dose administered orally without side effects", "setting": "[5]", "result": 4, "unit": "g"}]}, {"molecule": "O=C1O[C@H]([C@@H](O)CO)C(O)=C1O", "note": "[LAA, L-ascorbic acid]", "values": [{"measurement": "D-dimer test for massive cell lysis", "setting": "[6]; LAA supplementation after chemotherapy (FIG. 3B)", "result": "sharp increase"}, {"measurement": "patients responding", "setting": "[6]; Phase I/II clinical trial, 16 evaluated patients, p=0.007", "result": "8 out of 16"}, {"measurement": "leukemic blast cells in peripheral blood", "setting": "[6]; after 10 days of LAA supplementation, relapse after cytotoxic chemotherapy (FIG. 3A)", "result": "sharp decline"}, {"measurement": "frequency of platelet transfusion", "setting": "[6]; alternation of LAA supplementation and depletion, same patient (FIG. 2B)", "result": "marked reduction in the frequency of platelet transfusion"}, {"measurement": "leukemic blast cell number (peripheral blood and bone marrow)", "setting": "[6]; during supplementation of LAA phase, intravenous, one patient (FIG. 2A)", "result": "decline in leukemic blast cell number"}, {"measurement": "spleen size", "setting": "[6]; during supplementation of LAA phase, one patient (FIG. 2A)", "result": "decline in spleen size"}, {"measurement": "peak concentrations without significant adverse effects", "setting": "[7]; intravenous infusion", "result": "over 10 mMol"}, {"measurement": "blood levels", "setting": "[7]; oral, up to 180 gram per day in divided doses", "result": "≤ 200", "unit": "µM"}, {"measurement": "complete tumor regression, animals", "setting": "[8]; 0.3 mg/kg/day, up to 24 weeks", "result": 55, "unit": "%"}, {"measurement": "tumor growth", "setting": "[8]; 10 mg/kg/day", "result": "tumor inhibition but no regression"}, {"measurement": "tumor growth", "setting": "[8]; 1 g/kg/day", "result": "grew without sign of retardation"}, {"measurement": "patients whose leukemic cells had the requirement of LAA for growth", "setting": "[9]", "result": "~50", "unit": "%"}]}, {"molecule": "COc1ccc2c(c1)c(CC(=O)O)c(C)n2C(=O)c1ccc(Cl)cc1", "note": "[indomethacin]", "values": [{"measurement": "uptake of LAA via SVCT2", "setting": "[1]", "result": "inhibit the uptake of LAA"}]}]}
